This is an account of results in patent US20240279845A1, “METHOD FOR PREPARING A LIBRARY OF PEPTIDES OR A PEPTIDE” (ECOLE POLYTECHNIQUE FEDERALE DE LAUSANNE (EPFL), priority 2021, published 2024).

The target of experiment [1] is T1, thrombin (Homo sapiens, UniProt P00734).
T1 construct: two polypeptide chains of 36 (light chain) and 259 amino acid residues (heavy chain); purchased Haematologic Technologies HCT-0020
The experiment in a line: Substrate KM for protease screen, thrombin. The format is biochemical. The procedure: Crude macrocyclic libraries (4 mM DMSO stocks in 384-well LDV plates were transferred into 1536-well microtiter OptiPlates via ADE. Applied buffered solutions were prepared by filtration through PTFE syringe filters (0.22 μm) and assays were initiated by addition of protease (4.41 μl/well) in appropriate buffer (see list below) supplemented with bovine serum albumin (BSA; 0.1% w/v) and dispensed using a CERTUS automated liquid handler. Plates were incubated for 10 min at ambient temperature before fluorogenic substrate in appropriate buffer (4.5 μl) was added using a CERTUS automated liquid handler. Plates were centrifugated (800 g, 2 min) and fluorescence intensity was measured using a PHERAstar plate reader (excitation 384 nm, emission 440 nm) in time increments of 150 s over 15 min. Slopes of fluorescence increase (m) were calculated with Microsoft Excel (vers. 16.56). Negative controls were prepared without macrocycle. An average of 12 negative controls was used to calculate residual activities using Equation I below: […]
where [S]0 is the initial substrate concentration and KM is the Michaelis-Menten constant^12 for the enzyme and substrate.

The target of experiment [2] is T2, MDM2 (Homo sapiens, UniProt Q00987). The experiment in a line: Determining Kds of MDM2 binders by SPR. The format is binding. Particulars: unlabeled macrocycles, single cycle kinetics. As for the experimental part: FIG. 30. Binding of macrocycles to MDM2 measured by SPR. a, Single-cycle SPR sensorgrams for fluorescein-labeled macrocycles, positive control nutlin-3a (not fluorescein labeled), and negative controls (thrombin inhibitors; not fluorescein labeled). RU, response unit. b, Single-cycle SPR sensorgrams for macrocycles M6, M7, M8 and M10 (not fluorescein-labeled), performed in triplicate.
Experiments were performed using a GE Healthcare Biacore 8K instrument. MDM2 (10 μg/mL) was dissolved in 10 mM MES buffer (pH 6.0) and immobilized on three channels of a CM5 series S chip (Cytiva, 29104988) using EDC/NHS amine coupling conditions in running buffer (10 mM PBS pH 7.4, 150 mM NaCl, 3 mM KCI, and 0.005% v/v Tween-20). Typical immobilization level was 6,000 to 7,000 resonance units (RUs). The reference cell was treated the same way without MDM2. For the measurement of binding kinetics and dissociation constants, five serial dilutions (3-fold) of macrocycles plus a DMSO blank were prepared in running buffer (10 mM PBS PH 7.4, 150 mM NaCl, 3 mM KCl, and 0.005% v/v Tween-20, and 0.5% v/v DMSO) and analyzed in single cycle kinetics mode with contact and dissociation times of 120 seconds and 60 seconds, respectively.
(SPR reads the build-up and loss of mass on a sensor chip optically.)

In experiment [3] the target is T2, MDM2. The experiment in a line: MDM2 fluorescence polarization competition assay (displacement of FP53 peptide probe). It counts as binding. Conditions: purified macrocycles, 1.2 μM MDM2; read-out: IC50 displacement of fluorescent peptide probe from MDM2. The procedure:
The library was screened by dispensing to the reactions in the 384-mictrowell plates the target protein MDM2 and a reporter peptide to measure binding of the macrocycles.
One fluorescence anisotropy reading was taken with a Tecan Infinite F200 Pro fluorescence plate reader (excitation at 485 nm, emission at 535 nm) at 25° C.The percentage of probe displacement was calculated using to the following formula,
Volumes of 5 μL of purified macrocycles (20 mM in DMSO) were serial diluted two-fold in 100% DMSO in a low dead-volume ECHO source plate. Using acoustic droplet transfer, 150 nl of each dilution was transferred to a 384 well low volume polystyrene plate (Nunc, 264705). […] Fluorescence anisotropy was measured as described above. The percentage of bound inhibitor was calculated using the following equation
where N is the average anisotropy of the DMSO controls, X is the anisotropy value obtained for each well, and P is the average anisotropy of the unbound probe. The ICsos were determined by plotting the percent of bound inhibitor against the logarithm of the corresponding macrocycle concentration, and the curves were fitted in GraphPad Prism 6 as described above.

Experiment [4] deals with T1, thrombin. The experiment in a line: Thrombin inhibition screen of the 96-member disulfide-cyclized peptide library and Ki of purified hit (Example 2). It counts as biochemical. The procedure:
FIG. 7. Library design, peptide recovery quantification by absorption, and thrombin inhibition of the cyclic peptide library. (a) Design of library comprising 96 different peptides and structures of unnatural amino acids used in library. (b) Scatter plot of cyclic peptide concentrations (mM in DMSO) for the 96 synthesized cyclic peptides quantified by absorption at 280 nm. […] (c) Thrombin inhibition measured at an average cyclic peptide concentration of 11 μM. The peptides are ordered according to their thrombin inhibition activity in the first screen (black dots; highest to lowest activity). Green dots indicate thrombin inhibition for the same cyclic peptides measured in a second screen using the same conditions.
Despite the relatively small number of only 96 cyclic peptides and thus small chance of finding an active compounds, we performed a screen against thrombin, an important target for developing anticoagulation therapeutics, using a compound concentration of around 10 μM. […] Biological screens are typically performed at compound concentrations of around 10 μM, which means that the 100% DMSO and 150 mM DIPEA in the around 10 mM peptide stocks get 1000-fold diluted to reach concentrations of 0.1% and 150 μM, respectively, that unlikely affect most biological assays.

In experiment [5] the target is T2, MDM2. The experiment in a line: Competition binding experiment of fluorescein-labeled M10 with nutlin-3a on MDM2. Conditions: fluorescence polarization. As for the experimental part:
We subsequently performed a third cycle of library synthesis and screening, where we acylated the nine most promising scaffolds of the previous screens with 15 additional carboxylic acids, which were mostly cinnamic acid derivatives with larger substituents. We subsequently identified M10, which is a macrocycle based on the original scaffold and acylated with acid 120 that displaced the fluorescent probe used, F-M8, to 84% from MDM2 at 750 nM, and more efficiently than the parent compounds, M8 and M9 (FIG. 18c). […] With the fluorescein conjugate, we also performed a competition experiment with nutlin-3a that binds to a defined hydrophobic pocked of MDM2 (B. Anil et al., Acta Crystallogr. Sect. D Biol. Crystallogr. 2013, 69, 1358-1366) and is a precursor of nutlin-based clinical candidates.
A general note: Polarisation of emitted light reports the rotation of a fluorescent probe.

Usually Km stands for the substrate concentration at which the rate is half of its maximum. The term Kd denotes the concentration at which binding is half-saturated. Low values mean a tighter complex, high ones a looser complex. Usually IC50 stands for the point on the concentration scale where inhibition reaches its midpoint. For orientation: Ki means the dissociation constant of the complex between target and ligand, obtained from inhibition or displacement. Read a high Ki as lower affinity.

T2 sequence (Q00987 whole entry): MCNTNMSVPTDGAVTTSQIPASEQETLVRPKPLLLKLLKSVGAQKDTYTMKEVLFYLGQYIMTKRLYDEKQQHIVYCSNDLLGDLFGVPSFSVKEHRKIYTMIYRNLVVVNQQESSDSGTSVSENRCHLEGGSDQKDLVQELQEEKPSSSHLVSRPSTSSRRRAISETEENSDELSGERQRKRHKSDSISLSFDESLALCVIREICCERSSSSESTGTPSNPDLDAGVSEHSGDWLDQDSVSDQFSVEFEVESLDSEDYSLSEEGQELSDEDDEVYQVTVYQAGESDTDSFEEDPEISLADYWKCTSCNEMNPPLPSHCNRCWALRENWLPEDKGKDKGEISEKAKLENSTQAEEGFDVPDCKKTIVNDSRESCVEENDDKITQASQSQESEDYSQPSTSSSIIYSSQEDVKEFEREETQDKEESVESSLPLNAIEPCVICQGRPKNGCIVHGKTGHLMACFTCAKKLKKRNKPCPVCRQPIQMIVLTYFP

As to `Cc1cc(=O)oc2cc(NC(=O)[C@H](CCCNC(=N)N)NC(=O)CNC(=O)CNC(=O)OCc3ccccc3)ccc12` [Cbz-G-G-R-AMC], at thrombin [1], the Km came to 305 ± 46 µM.
As for `O=C(NC[C@@H]1NC(=O)[C@H]2CCCN(C2)C(=O)CCSSCCNC(=O)[C@H](Cc2c[nH]c3ccccc23)NC1=O)c1ccc(Cl)s1` [M6], the Kd on MDM2 [2] was 600 ± 300 nM. Besides, at MDM2 [3], the concentration for half-maximal inhibition (IC50) is ~1000 nM.
In the same order, the values of `O=C(NC[C@@H]1NC(=O)[C@H]2CCCN(C2)C(=O)CCSSCCNC(=O)[C@H](Cc2c[nH]c3ccccc23)NC1=O)c1ccc(Cl)cc1` [M7] are 550 ± 190 nM and ~1000 nM.
In the same order, the values of `O=C(/C=C/c1ccccc1)NC[C@@H]1NC(=O)[C@H]2CCCN(C2)C(=O)CCSSCCNC(=O)[C@H](Cc2c[nH]c3ccccc23)NC1=O` [M8] are 169 ± 93 nM and ~1000 nM.
Turning to Mpa-Tyr-II-Pro-Mea, at thrombin [4] (HPLC-purified disulfide cyclized peptide), the inhibition constant Ki stood at 13000 ± 1000 nM. For the same compound, the “reduction of thrombin activity” value at thrombin [4] (crude cyclic peptide, compound concentration of around 10 μM) amounted to 52%.
Consider nutlin-3a, for which, at MDM2 [5], the “competition with fluorescein conjugate of M10 for MDM2” value was “did not compete”.
